According to PubChem BioAssay (NCI):
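In this assay, cells in 96-well plates receive the compound at five concentrations for 48 hours. Endpoints are linearly interpolated between the surrounding concentrations. Here, GI50 denotes the concentration required for 50% inhibition of growth. The concentration for full growth arrest is given as TGI.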

Tests used:
Experiment in all cases: NCI tumour cell line growth inhibition, 48 h
MCF7 breast = system: MCF7 breast
A549 NSCLC = system: A549 NSCLC
HL-60(TB) leukemia = system: HL-60(TB) leukemia
RPMI-8226 leukemia = system: RPMI-8226 leukemia
U251 CNS = system: U251 CNS
NCI/ADR-RES ovarian = system: NCI/ADR-RES ovarian
CCRF-CEM leukemia = system: CCRF-CEM leukemia
NCI-H522 lung = system: NCI-H522 lung
CAKI-1 renal = system: CAKI-1 renal
OVCAR-4 ovarian = system: OVCAR-4 ovarian
SK-MEL-5 melanoma = system: SK-MEL-5 melanoma
HCC-2998 colon = system: HCC-2998 colon
HCT-15 colon = system: HCT-15 colon
M14 melanoma = system: M14 melanoma
MALME-3M melanoma = system: MALME-3M melanoma
PC-3 prostate = system: PC-3 prostate
OVCAR-5 ovarian = system: OVCAR-5 ovarian
SF-295 CNS = system: SF-295 CNS
HT29 colon = system: HT29 colon
SN12C renal = system: SN12C renal
SF-539 CNS = system: SF-539 CNS
OVCAR-8 ovarian = system: OVCAR-8 ovarian
SF-268 CNS = system: SF-268 CNS
SW-620 colon = system: SW-620 colon
SNB-75 CNS = system: SNB-75 CNS
SR leukemia = system: SR leukemia
ACHN renal = system: ACHN renal
HOP-92 NSCLC = system: HOP-92 NSCLC
EKVX NSCLC = system: EKVX NSCLC
HS 578T breast = system: HS 578T breast
UACC-257 melanoma = system: UACC-257 melanoma
UO-31 renal = system: UO-31 renal
TK-10 renal = system: TK-10 renal
KM12 colon = system: KM12 colon
T-47D breast = system: T-47D breast
IGROV1 ovarian = system: IGROV1 ovarian
SK-OV-3 ovarian = system: SK-OV-3 ovarian
LOX IMVI melanoma = system: LOX IMVI melanoma
K-562 leukemia = system: K-562 leukemia
NCI-H23 lung = system: NCI-H23 lung
A498 renal = system: A498 renal
NCI-H460 lung = system: NCI-H460 lung
UACC-62 melanoma = system: UACC-62 melanoma
SK-MEL-28 melanoma = system: SK-MEL-28 melanoma
NCI-H226 lung = system: NCI-H226 lung
HOP-62 NSCLC = system: HOP-62 NSCLC
MDA-MB-231 breast = system: MDA-MB-231 breast
SNB-19 CNS = system: SNB-19 CNS
OVCAR-3 ovarian = system: OVCAR-3 ovarian
HCT-116 colon = system: HCT-116 colon
RXF 393 renal = system: RXF 393 renal
COLO 205 colon = system: COLO 205 colon
SK-MEL-2 melanoma = system: SK-MEL-2 melanoma
BT-549 breast = system: BT-549 breast
MDA-MB-435 = system: MDA-MB-435
DU-145 prostate = system: DU-145 prostate
MOLT-4 leukemia = system: MOLT-4 leukemia
786-0 renal = system: 786-0 renal

Structure (SMILES): CN(C)CCCOc1c2ccc(Cl)cc2nc2c1oc1ccc(Cl)cc12
- GI50 (MCF7 breast): 1.24 µM
- TGI (MCF7 breast): 4.9 µM
- GI50 (A549 NSCLC): 2.73 µM
- TGI (A549 NSCLC): 11.8 µM
- GI50 (HL-60(TB) leukemia): 2.95 µM
- TGI (HL-60(TB) leukemia): 15.7 µM
- GI50 (RPMI-8226 leukemia): 1.97 µM
- GI50 (U251 CNS): 3.23 µM
- TGI (U251 CNS): 12.9 µM
- GI50 (NCI/ADR-RES ovarian): 3.72 µM
- TGI (NCI/ADR-RES ovarian): 17.7 µM
- GI50 (CCRF-CEM leukemia): 2.18 µM
- TGI (CCRF-CEM leukemia): 14.1 µM
- GI50 (NCI-H522 lung): 4.33 µM
- TGI (NCI-H522 lung): 23.5 µM
- GI50 (CAKI-1 renal): 1.39 µM
- TGI (CAKI-1 renal): 5.96 µM
- GI50 (OVCAR-4 ovarian): 2.1 µM
- TGI (OVCAR-4 ovarian): 6.4 µM
- GI50 (SK-MEL-5 melanoma): 4.48 µM
- TGI (SK-MEL-5 melanoma): 8.96 µM
- GI50 (HCC-2998 colon): 4.18 µM
- TGI (HCC-2998 colon): 15.5 µM
- GI50 (HCT-15 colon): 1.35 µM
- TGI (HCT-15 colon): 5.41 µM
- GI50 (M14 melanoma): 3.15 µM
- TGI (M14 melanoma): 9.37 µM
- GI50 (MALME-3M melanoma): 3.24 µM
- TGI (MALME-3M melanoma): 16.2 µM
- GI50 (PC-3 prostate): 1.69 µM
- TGI (PC-3 prostate): 9.2 µM
- GI50 (OVCAR-5 ovarian): 2.46 µM
- TGI (OVCAR-5 ovarian): 6.76 µM
- GI50 (SF-295 CNS): 2.12 µM
- TGI (SF-295 CNS): 6.44 µM
- GI50 (HT29 colon): 1.22 µM
- TGI (HT29 colon): 5.15 µM
- GI50 (SN12C renal): 1.46 µM
- TGI (SN12C renal): 5.55 µM
- GI50 (SF-539 CNS): 3.37 µM
- TGI (SF-539 CNS): 13.8 µM
- GI50 (OVCAR-8 ovarian): 1.49 µM
- TGI (OVCAR-8 ovarian): 6.04 µM
- GI50 (SF-268 CNS): 4.85 µM
- TGI (SF-268 CNS): 21.8 µM
- GI50 (SW-620 colon): 0.9 µM
- TGI (SW-620 colon): 4.36 µM
- GI50 (SNB-75 CNS): 1.41 µM
- TGI (SNB-75 CNS): 6.65 µM
- GI50 (SR leukemia): 1.18 µM
- TGI (SR leukemia): 5.33 µM
- GI50 (ACHN renal): 2.51 µM
- TGI (ACHN renal): 13.2 µM
- GI50 (HOP-92 NSCLC): 1.08 µM
- TGI (HOP-92 NSCLC): 12.9 µM
- GI50 (EKVX NSCLC): 2.46 µM
- TGI (EKVX NSCLC): 7.3 µM
- GI50 (HS 578T breast): 1.98 µM
- TGI (HS 578T breast): 9.43 µM
- GI50 (UACC-257 melanoma): 3.71 µM
- TGI (UACC-257 melanoma): 9.21 µM
- GI50 (UO-31 renal): 1.35 µM
- TGI (UO-31 renal): 11.7 µM
- GI50 (TK-10 renal): 6.62 µM
- TGI (TK-10 renal): 21.1 µM
- GI50 (KM12 colon): 2.22 µM
- TGI (KM12 colon): 7.52 µM
- GI50 (T-47D breast): 12.7 µM
- TGI (T-47D breast): > 59.1 µM
- GI50 (IGROV1 ovarian): 2.34 µM
- TGI (IGROV1 ovarian): 12.5 µM
- GI50 (SK-OV-3 ovarian): 3.79 µM
- TGI (SK-OV-3 ovarian): 15 µM
- GI50 (LOX IMVI melanoma): 0.857 µM
- TGI (LOX IMVI melanoma): 3.56 µM
- GI50 (K-562 leukemia): 1.05 µM
- TGI (K-562 leukemia): 5.07 µM
- GI50 (NCI-H23 lung): 3.43 µM
- TGI (NCI-H23 lung): 15.6 µM
- GI50 (A498 renal): 6.44 µM
- TGI (A498 renal): 27.7 µM
- GI50 (NCI-H460 lung): 1.08 µM
- TGI (NCI-H460 lung): 3.92 µM
- GI50 (UACC-62 melanoma): 4.85 µM
- TGI (UACC-62 melanoma): 10.1 µM
- GI50 (SK-MEL-28 melanoma): 5.09 µM
- TGI (SK-MEL-28 melanoma): 9.67 µM
- GI50 (NCI-H226 lung): 1.99 µM
- TGI (NCI-H226 lung): 8.13 µM
- GI50 (HOP-62 NSCLC): 3.21 µM
- TGI (HOP-62 NSCLC): 22 µM
- GI50 (MDA-MB-231 breast): 1.92 µM
- TGI (MDA-MB-231 breast): 6.5 µM
- GI50 (SNB-19 CNS): 1.89 µM
- TGI (SNB-19 CNS): 6.61 µM
- GI50 (OVCAR-3 ovarian): 2.43 µM
- TGI (OVCAR-3 ovarian): 7.57 µM
- GI50 (HCT-116 colon): 3.73 µM
- TGI (HCT-116 colon): 23.6 µM
- GI50 (RXF 393 renal): 1.8 µM
- TGI (RXF 393 renal): 4.88 µM
- GI50 (COLO 205 colon): 1.33 µM
- TGI (COLO 205 colon): 7.87 µM
- GI50 (SK-MEL-2 melanoma): 4.66 µM
- TGI (SK-MEL-2 melanoma): 12.4 µM
- GI50 (BT-549 breast): 7.26 µM
- TGI (BT-549 breast): > 30.5 µM
- GI50 (MDA-MB-435): 2.17 µM
- TGI (MDA-MB-435): 6.39 µM
- GI50 (DU-145 prostate): 4.21 µM
- TGI (DU-145 prostate): 14.4 µM
- GI50 (MOLT-4 leukemia): 1.23 µM
- TGI (MOLT-4 leukemia): 6.58 µM
- GI50 (786-0 renal): 4.12 µM
- TGI (786-0 renal): 16.1 µM
